Measured values reported in publication PMC11864979, “First-in-class ultralong-target-residence-time p38α inhibitors as a mitosis-targeted therapy for colorectal cancer” (Nature Cancer, 2025).
pIC50: −log10 of the molar value. Several values for one entry are separate records, joined by “and”; a condition that tells them apart may be missing. Equal entries are not always repeated. Where two headings read alike, the source gives them in different places.

Columns and labels:
[1] = test system: PDO2; assay: cell viability in patient-derived CRC organoids PDO2; format: cell-based, human; settings: Fig. 3c, replicates
Protocol: (§1) For in vitro treatment studies, organoids were mechanically dissociated and digested using TrypLE supplemented with 100 µg ml^−1 DNaseI and 10.5 µM Y-27632 dihydrochloride (Invitrogen) at 37 °C. A total of 1,000–2,000 single cells were plated per well in white 96-well plates (Greiner) in culture medium containing 10% GFR Matrigel or Cultrex BME. The treatment with doxycycline (5 µg ml^−1), pharmacological inhibitors or corresponding volumes of DMSO was started 24 h after plating. Doxycycline was obtained from Sigma-Aldrich. […] Cell viability was measured by means of CellTiter-Glo 3D or CellTiter-Glo 2.0 reagent (Promega) according to the manufacturers’ instructions and the Infinite M Plex reader (Tecan, i-control version 3.9.1 software). Results were normalized to vehicle (DMSO) or to shNC. For cell-doubling assays, the cell number was quantified at the corresponding time points using Guava EasyCyte flow cytometer (Luminex, CytoSoft v5.2 software).

[2] = test system: PDO3; assay: cell viability in patient-derived CRC organoids PDO3; format: cell-based, human; settings: Fig. 3d, replicates
Protocol: as §1

[3] = test system: PDO5; assay: cell viability in patient-derived CRC organoids PDO5; format: cell-based, human; settings: Fig. 3f, replicates
Protocol: as §1

[4] = test system: PDO10; assay: cell viability in patient-derived CRC organoids PDO10; format: cell-based, human
Protocol: as §1

[5] = test system: PDO12; assay: cell viability in patient-derived CRC organoids PDO12; format: cell-based, human; settings: PDO12, 0.5 µM, 4 d
Protocol: as §1

[6] = test system: HT-29; assay: cell viability in human CRC cell line HT-29; format: cell-based; settings: for HT-29 Cell viability (%) / viability at 0.0137 µM / viability at 0.0412 µM / viability at 0.1235 µM / viability at 0.3704 µM / viability at 1.1111 µM / viability at 3.3333 µM / viability at 10 µM: ED Fig. 9h, replicates; for viability at 0.0137 µM: HT-29, 0.0137 µM; for viability at 0.0137 µM / viability at 0.0412 µM / viability at 0.1235 µM / viability at 0.3704 µM / viability at 1.1111 µM / viability at 3.3333 µM / viability at 10 µM: read-out: HT-29 Cell viability (%); for viability at 0.0412 µM: HT-29, 0.0412 µM; for viability at 0.1235 µM: HT-29, 0.1235 µM; for viability at 0.3704 µM: HT-29, 0.3704 µM; for viability at 1.1111 µM: HT-29, 1.1111 µM; for viability at 3.3333 µM: HT-29, 3.3333 µM; for viability at 10 µM: HT-29, 10.0000 µM
Protocol: To generate KAP^2D cells, KAP organoids were isolated from Matrigel, fragmented by mechanical dissociation and plated without any extracellular matrix on common cell culture dishes. Phoenix-Eco packaging cells (CRL-3214), HCT-15 (CCL-225), HCT 116 (CCL-247), COLO 205 (CCL-222), LS 174T (CL-188), RKO (CRL-2577) and HT-29 (HTB-38) were obtained from the American Type Culture Collection. The cells were cultured at 37 °C and 7% CO2 with RPMI (KAP^2D cells) or DMEM (other cell lines), supplemented with 10% FBS and penicillin–streptomycin. KAP^2D cells were authenticated using PCR (Kras locus and Trp53 locus). Phoenix-Eco packaging cells and HCT-15, HCT 116, COLO 205, LS 174T, RKO and HT-29 cells were authenticated by the provider using short tandem repeat profiling. No commonly misidentified cell lines were used. Mycoplasma contamination was excluded by a PCR-based analysis.
as §1

[7] = test system: KAP^2D cells; assay: western blot analysis of p38α signaling in KAP^2D cells; format: cell-based, mouse; settings: 1 µM, 1 day
Protocol: Proteins were extracted from cells and organoids using radioimmunoprecipitation assay extraction buffer (50 mM Tris pH 8.0, 150 mM NaCl, 1% Triton X-100, 0.5% sodium deoxycholate, 0.1% SDS, 5 mM EDTA and 1 mM EGTA) supplemented with protease and phosphatase inhibitors (cOmplete and PhosSTOP, Roche). Protein concentrations were measured using the DC (detergent compatible) Protein Assay (Bio-Rad). Briefly, 20–30 µg of protein was separated by SDS–PAGE and transferred onto PVDF membranes (Immobilon-P, Millipore). Membranes were blocked in 5% BSA and Tris-buffered saline (TBS)–Tween buffer and then incubated with primary antibodies overnight at 4 °C and with horseradish peroxidase-conjugated secondary antibodies for 1 h at room temperature. All used antibodies and dilutions are listed in the Nature Portfolio Reporting Summary. The blots were visualized using the ChemiDoc MP Imaging System (BIO-RAD) and ImageLab version 5.2.1 software. Vinculin and β-actin were used as loading controls.

[8] = in vivo pharmacokinetic studies in mice (plasma, LC-MS); set-up: species or system mouse
Protocol: No mice were excluded during treatment studies. […] GFP imaging of tumors was performed using a Hamamatsu imaging system. For quantification of compounds in the murine plasma, 20 μl of tail-vein blood was diluted with 80 μl of heparin solution, before 200 μl of ice-cold acetonitrile with a defined internal standard was added. The samples were sonicated and centrifuged and the supernatant was subjected to liquid chromatography-mass spectrometry quantification. Full blood analyses were performed with the Sysmex KX-21N hematology analyzer.

[9] = mouse, plasma, oral administration in mice, 20 mg kg^−1
[10] = oral administration in mice, 20 mg kg^−1

CNC(=O)c1ccc2c(c1)C(=O)c1ccc(Nc3ccc(F)c(NC(=O)C4CC4)c3)cc1CC2 [Compound 2015]
Cell viability (%) ([1]; 0,5 µM, 5 µM): 17.11% and 9.01% and 7.93% | Cell viability (%) ([1]; 0,25 µM): 30.33% and 26.25% | Cell viability (%) ([1]; 1 µM): 8.07% and 8.23% | viability at 1 µM ([1]; Homo sapiens, 1 µM): 10.5% | Cell viability (%) ([2]; 0,5 µM, 5 µM): 69.11% and 51.45% | Cell viability (%) ([2]; 0,25 µM, 25 µM): 56.63% and 78.13% and 87.76% | Cell viability (%) ([2]; 1 µM): 56.28% and 48.78% | viability at 5 µM ([2]; Homo sapiens, 72 h, 0,5 µM): 50.1% | viability at 1 µM ([2]; Homo sapiens, 72 h, 1 µM): 53% | Cell viability (%) ([3]; 0,5 µM, 5 µM): 16.61% and 12.02% | Cell viability (%) ([3]; 0,25 µM, 25 µM): 73.65% and 55.49% | Cell viability (%) ([3]; 1 µM): 16.85% and 11.03% | viability at 1 µM ([3]; Homo sapiens, 1 µM): 12.7% | viability at 1 µM ([4]; Homo sapiens, 96 h, PDO10, 1 µM, 4 days, read-out: Cell viability (%)): 32.9% | Cell viability (%) ([4]; PDO10, 0.5 µM, 4 d, 0.5 µM): 34.24% and 30.71% and 56.53% | Cell viability (%) ([4]; PDO10, 1 µM, 4 days, 1 µM): 48.68% and 34.77% | viability at 0.5 µM ([5]; Homo sapiens, 96 h, read-out: Cell viability (%)): 40% | Cell viability (%) ([5]; 0.5 µM): 54.51% and 54.94% | HT-29 Cell viability (%) ([6]; 0.0137 µM, Repetition): 96.89% and 103.43% | HT-29 Cell viability (%) ([6]; 0.0137 µM, first experiment): 95.39% and 93.39% | HT-29 Cell viability (%) ([6]; 0.0412 µM, Repetition): 87.26% and 92.22% | HT-29 Cell viability (%) ([6]; 0.0412 µM, first experiment): 90.94% and 92.11% | HT-29 Cell viability (%) ([6]; 0.1235 µM, Repetition): 78.51% and 65.92% | HT-29 Cell viability (%) ([6]; 0.1235 µM, first experiment): 82.62% and 81.99% | HT-29 Cell viability (%) ([6]; 0.3704 µM, Repetition): 32.88% and 34.27% | HT-29 Cell viability (%) ([6]; 0.3704 µM, first experiment): 11.40% and 11.69% | HT-29 Cell viability (%) ([6]; 1.1111 µM, Repetition): 7.40% and 7.23% | HT-29 Cell viability (%) ([6]; 1.1111 µM, first experiment): 7.18% and 7.44% | HT-29 Cell viability (%) ([6]; 3.3333 µM, Repetition): 7.01% and 6.31% | HT-29 Cell viability (%) ([6]; 3.3333 µM, first experiment): 10.00% and 9.86% | HT-29 Cell viability (%) ([6]; 10.0000 µM, Repetition): 6.48% and 6.38% | HT-29 Cell viability (%) ([6]; 10.0000 µM, first experiment): 9.39% and 10.22% | pIC50 ([6]; Homo sapiens, 96 h, HT-29, 4 d of treatment): 6.75 | viability at 0.0137 µM ([6]; Homo sapiens, Repetition): 99.5% | viability at 0.0137 µM ([6]; Homo sapiens, first experiment): 93.3% | viability at 0.0412 µM ([6]; Homo sapiens, Repetition): 82.5% | viability at 0.0412 µM ([6]; Homo sapiens, first experiment): 89.4% | viability at 0.1235 µM ([6]; Homo sapiens, Repetition): 73% | viability at 0.1235 µM ([6]; Homo sapiens, first experiment): 79.7% | viability at 0.3704 µM ([6]; Homo sapiens, Repetition): 33.4% | viability at 0.3704 µM ([6]; Homo sapiens, first experiment): 12.1% | viability at 1.1111 µM ([6]; Homo sapiens, Repetition): 7.21% | viability at 1.1111 µM ([6]; Homo sapiens, first experiment): 7.57% | viability at 3.3333 µM ([6]; Homo sapiens, Repetition): 6.86% | viability at 3.3333 µM ([6]; Homo sapiens, first experiment): 10.2% | viability at 10 µM ([6]; Homo sapiens, Repetition): 6.64% | viability at 10 µM ([6]; Homo sapiens, first experiment): 9.63% | MK2^T334 phosphorylation (in words) [7]: strongly reduced | Plasma concentration ([8]; 0 min of treatment, individual animals): 0.00 µM | Plasma concentration ([8]; 45 min of treatment, individual animals): 20.46 µM and 14.73 µM | Plasma concentration ([8]; 90 min of treatment, individual animals): 17.75 µM and 16.83 µM | Plasma concentration ([8]; 180 min of treatment, individual animals): 13.04 µM and 13.78 µM | Plasma concentration ([8]; 480 min of treatment, individual animals): 2.27 µM and 3.36 µM | Plasma concentration ([8]; 1440 min of treatment, individual animals): 0.20 µM and 0.04 µM (2×) | concentration at 0 min ([8]; mouse, plasma, oral, 20 mg kg^−1, 0 min of treatment, individual animals): 0 µM | concentration at 45 min ([8]; mouse, plasma, oral, 20 mg kg^−1, 45 min of treatment, individual animals): 26.8 µM | concentration at 90 min ([8]; mouse, plasma, oral, 20 mg kg^−1, 90 min of treatment, individual animals): 25.2 µM | concentration at 180 min ([8]; mouse, plasma, oral, 20 mg kg^−1, 180 min of treatment, individual animals): 17 µM | concentration at 480 min ([8]; mouse, plasma, oral, 20 mg kg^−1, 480 min of treatment, individual animals): 4.26 µM | AUC [8, 9]: 121 µM·h | half-life [8, 9]: 2.68 h | C^max [8, 10]: 20.7 µM | t^max [8, 10]: 45 min
